Paper PMC6072516, “Rational design and synthesis of novel phenylsulfonyl-benzamides as anti-prostate cancer agents” (MedChemComm, 2017)
Read-outs that look alike come from different tables or passages of the source.

What was measured:
[1] = tested on: HEK293 human embryonic kidney cells; experiment: Cell Titer Blue viability (cytotoxicity) assay; format: cell-based
Procedure: (§1) A Cell Titer Blue viability assay was performed in the human embryonic kidney cell line HEK293, in order to evaluate the cytotoxicity profile of the newly prepared compounds. […] .
(§2) Fig. 5 HEK293 human embryonic kidney cells were treated at 70% confluence with negative controls (0.1% DMSO, BICAL at 10 μM), positive control (10% DMSO) and compounds at 10 μM concentration for 24 hours. […] Fluorescence was measured at 560/590 nm using a CLARIOstar luminescence plate reader (BMG Labtech). N = 4, n = 6 for controls, n = 3 for drugs. […]
(§3) for calculation of the geometric mean value. […]
(§4) of 0.05% Trypsin/EDTA. […] When all cells […]
(§5) chamber counting grid (Immune Systems). […]
(§6) confluence for assay the next day. […]
(§7) drugs at 10 µM concentration.
(§8) 100 µl media. […] Fluorescence was measured
(§9) USA). […] The Dunnett’s multiple […]
(§10) comparison test was used to compare each drug and the positive control to the negative control […]
(§11) Compound R1 X R2 Cell Viability Antiproliferative
(§12) Mean (%)* SEM** Abs. IC50
(§13) Table S2. Cell Viability assay at 10 µM. * Mean % of cell viability relative to control; ** Errors are calculated as standard error of the mean; ***Geometric mean.

[2] = tested on: four human prostate cancer cell lines: LNCaP, 22Rv1, VCaP, DU145; experiment: Antiproliferative assay, overall effect in the four cell lines (geometric mean); format: cell-based; details: for IC50: geometric mean of the four cell lines, read-out: Absolute IC50 Geo. mean
Procedure: PCR based DNA-fingerprinting methodology.
density of 4.000 – 30.000 cells/well.
test compound were added.
concentrations in triplicate.
After an incubation period of
control/background ratio >3.0
The absolute IC50 value reflects the
The calculation was done by a 4
for calculation of the geometric mean value.
of 0.05% Trypsin/EDTA. […] When all cells

[3] = Cell Titer Blue viability (cytotoxicity) assay; format: cell-based, human; details: human
Procedure: as §1, §2, §3, §4, §5, §6, §7, §8, §9, §10, §11, §12, §13

[4] = tested on: 22Rv1; experiment: 2D monolayer antiproliferative assay (propidium iodide), 22Rv1; details: Homo sapiens, 22Rv1, 96 h, read-out: Absolute IC50 22Rv1
Procedure: (§14) All new compounds along with the two standards were tested for their ability to inhibit survival and/or cell proliferation in four human prostate cancer cell lines: LNCaP, 22Rv1, VCaP, androgen-sensitive cell lines, and DU145, a non hormone-sensitive cell line.
(§15) Compound Handling: Stock solutions for all inhibitors were prepared in DMSO at a
(§16) were well soluble at this concentration in DMSO and precipitation was not observed for any
(§17) compound dissolved in 100% DMSO. Aliquots of the stock solution were thawed on the day
(§18) of use and stored at room temperature prior to and during treatment. The subsequent dilutions
(§19) were done with complete RPMI1640 cell culture medium. The DMSO stock solution was first
(§20) Starting with this solution, serial dilutions in
(§21) half-log steps with cell culture medium were done using an intermediate dilution plate. Finally,
(§22) 10 µl taken from the intermediate dilution plate were transferred to 140 µl / well of the cell
(§23) culture plate. Thus, at the highest test concentration the DMSO stock was diluted 1:330,
(§24) corresponding to a maximum DMSO concentration of 0.3 % v/v in the assay. Solubility of the
(§25) diluted compounds in the assay was monitored under the microscope by visual inspection of
(§26) the treated cell lines after the 4 days incubation. Precipitation as observed by crystalline
(§27) Tumor Cell lines: The cell line panel used for assessing the novel inhibitors comprised four
(§28) cell lines derived from human prostate cancers.
(§29) 6-7 Cell lines were routinely passaged once or twice weekly and maintained in culture for up to 20 passages. All cells were grown at 37°C in
(§30) glutamine, #FG1385, Biochrom, Berlin, Germany) supplemented with 10% (v/v) fetal calf serum (Sigma, Taufkirchen, Germany) and 0.1 mg/mL gentamicin (Life Technologies,
(§31) Cell Proliferation Assay: A modified propidium iodide (PI) based monolayer assay was used
(§32) exponential phase cultures, counted and plated in 96-well flat-bottom micro titer plates at a cell density of 4.000 – 30.000 cells/well. After a 24 h recovery period to allow the cells to resume exponential growth, 10 µl of culture medium (six control wells/plate) or culture medium with test compound were added. The compounds were applied in half-log increments at 10 concentrations in triplicate. After a total treatment period of 96 h, cells were washed with 200 µl PBS to remove dead cells and debris. Then, 200 µl of a solution containing 7 µg/ml propidium iodide (PI) and 0.1% (v/v) Triton X-100 was added. After an incubation period of 1-2 hours at room temperature, fluorescence (FU) was measured using the EnSpire Multimode Plate Reader (excitation λ= 530 nm, emission λ= 620 nm) to quantify the amount of attached
(§33) For calculation of mean IC50 values the geometric mean was used.
(§34) Data Evaluation: An assay was considered fully evaluable if the following quality control
(§35) - Z’-factor calculated within the assay plate ≥0.59
(§36) - fluorescence intensity of >500 U from the untreated control wells, equivalent to a
(§37) - coefficient of variation in the growth control wells ≤30
(§38) Compound effects were expressed in terms of the percentage of the fluorescence signal, obtained by comparison of the mean signal in the treated wells with the mean signal of the untreated controls (expressed by the test-versus-control value, T/C-value [%]):

[5] = tested on: LNCaP; experiment: 2D monolayer antiproliferative assay (propidium iodide), LNCaP; details: for IC50: Homo sapiens, LNCaP, 96 h, read-out: Absolute IC50 LNCaP
Procedure: as §14, §15, §16, §17, §18, §19, §20, §21, §22, §23, §24, §25, §26, §27, §28, §29, §30, §31, §32, §33, §34, §35, §36, §37, §38

[6] = tested on: VCaP; experiment: 2D monolayer antiproliferative assay (propidium iodide), VCaP; details: Homo sapiens, 96 h, read-out: Absolute IC50 VCaP
Procedure: as §14, §15, §16, §17, §18, §19, §20, §21, §22, §23, §24, §25, §26, §27, §28, §29, §30, §31, §32, §33, §34, §35, §36, §37, §38

[7] = tested on: DU-145; experiment: 2D monolayer antiproliferative assay (propidium iodide), DU-145; details: Homo sapiens, DU-145, 96 h, read-out: Absolute IC50 DU-145
Procedure: as §14, §15, §16, §17, §18, §19, §20, §21, §22, §23, §24, §25, §26, §27, §28, §29, §30, §31, §32, §33, §34, §35, §36, §37, §38

[8] = 10 µM, 24 h, HEK293, mean % of cell viability relative to control, read-out: Cell Viability Mean (%)

C[S+](C)[O-] [10% DMSO]
Cell Viability Mean (%) ([1]; 10 µM): 1.45%

C[C@](O)(CS(=O)(=O)c1ccc(F)cc1)C(=O)Nc1ccc(C#N)c(C(F)(F)F)c1 [Bicalutamide, bicalutamide, reference compound]
IC50 ([2]; Homo sapiens): 50 µM | IC50 [2]: 52.4 µM | viability at 24 h, 10 µM ([3]; HEK293 cells, 10 µM, 24 h, HEK293, mean % of cell viability relative to control, read-out: Cell Viability Mean (%)): 94.6%

N#Cc1ccc(NC(=O)c2ccc(Sc3ccc(O)cc3)cc2)cc1C(F)(F)F [Compound 11a]
IC50 [4]: 6.24 µM | IC50 [5]: 5.43 µM | IC50 ([2]; Homo sapiens): 7.08 µM | viability at 24 h, 10 µM [3, 8]: 65.7% | IC50 [6]: 9.55 µM | IC50 [7]: 7.77 µM

O=C(Nc1ccc([N+](=O)[O-])c(C(F)(F)F)c1)c1ccc(Sc2ccc(O)cc2)cc1 [Compound 11b]
IC50 [4]: 4.5 µM | IC50 [5]: 3.58 µM | IC50 ([2]; Homo sapiens): 4.68 µM | viability at 24 h, 10 µM [3]: 65.4% | IC50 [6]: 5.19 µM | IC50 [7]: 5.74 µM

O=C(Nc1cc(C(F)(F)F)cc(C(F)(F)F)c1)c1ccc(Sc2ccc(O)cc2)cc1 [Compound 11c]
IC50 [4]: 3.35 µM | IC50 [5]: 2.39 µM | IC50 ([2]; Homo sapiens): 3.28 µM | viability at 24 h, 10 µM [3]: 64.2% | IC50 [6]: 2.59 µM | IC50 [7]: 5.6 µM

O=C(Nc1cc(C(F)(F)F)ccc1C(F)(F)F)c1ccc(Sc2ccc(O)cc2)cc1 [Compound 11d]
IC50 [4]: 10.3 µM | IC50 [5]: 11.4 µM | IC50 ([2]; Homo sapiens): 12.1 µM | viability at 24 h, 10 µM [3]: 53.7% | IC50 [6]: 10.9 µM | IC50 [7]: 16.6 µM

O=C(Nc1ccc(S(F)(F)(F)(F)F)cc1)c1ccc(Sc2ccc(O)cc2)cc1 [Compound 11e]
IC50 [4]: 3.71 µM | IC50 [5]: 4.86 µM | IC50 ([2]; Homo sapiens): 5.43 µM | viability at 24 h, 10 µM [3]: 49.5% | IC50 [6]: 7.15 µM | IC50 [7]: 6.76 µM

O=C(Nc1cccc(S(F)(F)(F)(F)F)c1)c1ccc(Sc2ccc(O)cc2)cc1 [Compound 11f]
IC50 [4]: 2.94 µM | IC50 [5]: 3.32 µM | IC50 ([2]; Homo sapiens): 4.01 µM | viability at 24 h, 10 µM [3]: 60.5% | IC50 [6]: 6.1 µM | IC50 [7]: 4.35 µM

O=C(Nc1ccc(C(F)(F)F)cc1)c1ccc(Sc2ccc(O)cc2)cc1 [Compound 11g]
IC50 [4]: 6.23 µM | IC50 [5]: 8.3 µM | IC50 ([2]; Homo sapiens): 8.09 µM | viability at 24 h, 10 µM [3]: 66.3% | IC50 [6]: 9.68 µM | IC50 [7]: 8.55 µM

O=C(Nc1cccc(C(F)(F)F)c1)c1ccc(Sc2ccc(O)cc2)cc1 [Compound 11h]
IC50 [4]: 5.73 µM | IC50 [5]: 9.66 µM | viability at 24 h, 10 µM [3]: 85.6% | IC50 [6]: 10.6 µM | IC50 [7]: 5.95 µM

O=C(Nc1ccccc1C(F)(F)F)c1ccc(Sc2ccc(O)cc2)cc1 [Compound 11i]
IC50 [4]: 30.9 µM | IC50 [5]: 11.4 µM | reduction of overall effect in the four cell lines, ortho vs meta CF3 ([2]; 11h vs 11i): 3 fold | IC50 ([2]; Homo sapiens): 25.2 µM | viability at 24 h, 10 µM [3]: 111% | IC50 [6]: 32.3 µM | IC50 [7]: 35.7 µM

N#Cc1ccc(NC(=O)c2ccc(Sc3cccc(C(F)(F)F)c3)cc2)cc1C(F)(F)F [Compound 12a]
IC50 [4]: 3.57 µM | IC50 [5]: 8.87 µM | IC50 ([2]; Homo sapiens): 5.5 µM | viability at 24 h, 10 µM [3, 8]: 60% | IC50 [6]: 5.66 µM | IC50 [7]: 5.12 µM

O=C(Nc1cccc(C(F)(F)F)c1)c1ccc(Sc2cccc(C(F)(F)F)c2)cc1 [Compound 12h]
IC50 [4]: 6.96 µM | IC50 [5]: 12.5 µM | IC50 ([2]; Homo sapiens): < 16 µM | IC50 [2]: 12.5 µM | viability at 24 h, 10 µM [3]: 112% | IC50 [6]: 28.2 µM | IC50 [7]: 9.89 µM

N#Cc1ccc(NC(=O)c2ccc(S(=O)(=O)c3ccc(O)cc3)cc2)cc1C(F)(F)F [Compound 13a]
IC50 [4]: 12.1 µM | IC50 [5]: 4.68 µM | IC50 ([2]; Homo sapiens): 8.84 µM | viability at 24 h, 10 µM [3, 8]: 73% | IC50 [6]: 8.56 µM | IC50 [7]: 12.6 µM

O=C(Nc1ccc([N+](=O)[O-])c(C(F)(F)F)c1)c1ccc(S(=O)(=O)c2ccc(O)cc2)cc1 [Compound 13b]
IC50 [4]: 7.3 µM | IC50 [5]: 4.96 µM | viability at 24 h, 10 µM [3]: 82.3% | IC50 [6]: 8.57 µM | IC50 [7]: 8.85 µM

O=C(Nc1cc(C(F)(F)F)cc(C(F)(F)F)c1)c1ccc(S(=O)(=O)c2ccc(O)cc2)cc1 [Compound 13c]
IC50 [4]: 6.44 µM | IC50 [5]: 8.41 µM | increase of IC50 values, sulfone vs thioether ([2]; 11c vs 13c): up to 2 fold | IC50 ([2]; Homo sapiens): 8.5 µM | viability at 24 h, 10 µM [3]: 65.7% | IC50 [6]: 9.72 µM | IC50 [7]: 9.92 µM

O=C(Nc1cc(C(F)(F)F)ccc1C(F)(F)F)c1ccc(S(=O)(=O)c2ccc(O)cc2)cc1 [Compound 13d]
IC50 [4]: 20.7 µM | IC50 [5]: 23.2 µM | IC50 ([2]; Homo sapiens): 25.2 µM | IC50 [6]: 30.5 µM | IC50 [7]: 27.8 µM

O=C(Nc1ccc(S(F)(F)(F)(F)F)cc1)c1ccc(S(=O)(=O)c2ccc(O)cc2)cc1 [Compound 13e, 4-((4-Hydroxyphenyl)sulfonyl)-N-(4-(pentafluorothio)phenyl)benzamide]
IC50 [4]: 5.78 µM | IC50 [5]: 2.49 µM | IC50 ([2]; Homo sapiens): 5.37 µM | reduction of cell viability / cells killed ([1]; human, 24 h, 10 μM): more than 50% | viability at 24 h, 10 µM [3]: 38.4% | IC50 [6]: 5.35 µM | IC50 [7]: 10.8 µM

O=C(Nc1cccc(S(F)(F)(F)(F)F)c1)c1ccc(S(=O)(=O)c2ccc(O)cc2)cc1 [Compound 13f, N-(3-(Pentafluorosulfanyl)phenyl)-4-((4-hydroxyphenyl)sulfonyl)benzamide]
IC50 [4]: 5.66 µM | IC50 [5]: 3.98 µM | IC50 ([2]; Homo sapiens): 6.18 µM | viability at 24 h, 10 µM [3]: 76.2% | IC50 [6]: 10.8 µM | IC50 [7]: 6.01 µM

O=C(Nc1ccc(C(F)(F)F)cc1)c1ccc(S(=O)(=O)c2ccc(O)cc2)cc1 [Compound 13g]
IC50 [4]: 16.8 µM | IC50 [5]: 10.8 µM | IC50 ([2]; Homo sapiens): 19.7 µM | viability at 24 h, 10 µM [3]: 61.8% | IC50 [6]: 27.2 µM | IC50 [7]: 30.7 µM

O=C(Nc1cccc(C(F)(F)F)c1)c1ccc(S(=O)(=O)c2ccc(O)cc2)cc1 [Compound 13h]
IC50 [4]: 15.1 µM | IC50 [5]: 10.2 µM | IC50 ([2]; Homo sapiens): < 16 µM | IC50 [2]: 16.8 µM | viability at 24 h, 10 µM [3]: 87.6% | IC50 [6]: 30.1 µM | IC50 [7]: 17.7 µM

O=C(Nc1ccccc1C(F)(F)F)c1ccc(S(=O)(=O)c2ccc(O)cc2)cc1 [Compound 13i]
IC50 [4]: 49.3 µM | IC50 [5]: 39.3 µM | IC50 ([2]; Homo sapiens): 49.1 µM | viability at 24 h, 10 µM [3]: 129% | IC50 [6]: 65.2 µM | IC50 [7]: 45.9 µM

O=C(Nc1ccc(S(F)(F)(F)(F)F)cc1)c1ccc([S+]([O-])c2ccc(O)cc2)cc1 (stereo not shown) [Compound 14e, 4-((4-Hydroxyphenyl)sulfinyl)-N-(4-(pentafluorothio)phenyl)benzamide]
IC50 [4]: 5.6 µM | Absolute IC50 LNCaP ([5]; 96 h treatment, mean of triplicate, SD ±10%): sub μM | IC50 [5]: 0.9 µM | IC50 ([2]; Homo sapiens): 3.75 µM | viability at 24 h, 10 µM [3]: 59.7% | IC50 [6]: 3.53 µM | IC50 [7]: 11 µM

O=C(Nc1ccccc1C(F)(F)F)c1ccc([S+]([O-])c2ccc(O)cc2)cc1 (stereo not shown) [Compound 14i]
IC50 [4]: > 100 µM | IC50 [5]: 62 µM | viability at 24 h, 10 µM [3]: 104% | IC50 [6]: 97.6 µM | IC50 [7]: > 100 µM

N#Cc1ccc(NC(=O)c2ccc(S(=O)(=O)c3cccc(C(F)(F)F)c3)cc2)cc1C(F)(F)F [Compound 15a]
IC50 [4]: 3.57 µM | IC50 [5]: 3.73 µM | IC50 ([2]; Homo sapiens): 4.71 µM | viability at 24 h, 10 µM [3, 8]: 79% | IC50 [6]: 7.87 µM | IC50 [7]: 4.7 µM

O=C(Nc1cccc(C(F)(F)F)c1)c1ccc(S(=O)(=O)c2cccc(C(F)(F)F)c2)cc1 [Compound 15h]
viability at 24 h, 10 µM [3]: 83.9%
